Experimental data: patent EP0371388A2, “Acridine derivatives” (FUJISAWA PHARMACEUTICAL CO., LTD., priority 1988, dated 1990)

Assays:
acetylcholinesterase = target: T1, acetylcholinesterase (Rattus norvegicus, UniProt P37136); assay: Inhibition of acetylcholinesterase (enzyme assay); format: biochemical
T1 construct: The acetylcholinesterase used in this test was obtained from rat's corpus striatum; from tissue; host or cells: rat corpus striatum
T1 sequence (P37136 32-614): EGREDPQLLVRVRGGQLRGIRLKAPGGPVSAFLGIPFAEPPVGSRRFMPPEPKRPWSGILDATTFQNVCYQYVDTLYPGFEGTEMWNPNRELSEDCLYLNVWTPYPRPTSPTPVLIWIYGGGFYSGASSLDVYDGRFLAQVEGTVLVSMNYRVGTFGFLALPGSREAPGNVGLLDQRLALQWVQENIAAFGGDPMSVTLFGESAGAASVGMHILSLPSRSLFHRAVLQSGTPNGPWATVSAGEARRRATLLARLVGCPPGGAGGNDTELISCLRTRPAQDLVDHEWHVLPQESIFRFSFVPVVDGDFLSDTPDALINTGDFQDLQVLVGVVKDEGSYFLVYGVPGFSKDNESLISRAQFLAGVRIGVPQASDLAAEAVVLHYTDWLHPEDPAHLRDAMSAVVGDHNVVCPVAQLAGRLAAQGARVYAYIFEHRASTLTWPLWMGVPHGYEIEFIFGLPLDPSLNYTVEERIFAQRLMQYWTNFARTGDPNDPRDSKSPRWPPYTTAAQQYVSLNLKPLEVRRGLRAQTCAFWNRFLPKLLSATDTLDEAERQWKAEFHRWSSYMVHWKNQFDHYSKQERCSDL
Protocol: The ability to inhibit acetylcholinesterase was determined by the method (enzyme assay) described in Clinica Chimica Acta, 115 (1981) 163-170. The acetylcholinesterase used in this test was obtained from rat's corpus striatum.

[1] = test system: deficit of memory induced by cycloheximide; assay: Passive avoidance test; format: in vivo; conditions: Dose 0.032 mg/kg i.p.; ddY strain male mice given cycloheximide 30 mg/kg S.C.; step-down latency 24 hours after training
Description: 6-Weeks old ddY strain male mice (20 per group) were used. The effect of the test compound on deficit of memory induced by cycloheximide (a protein synthesis inhibitor) in passive avoidance task was examined.
The apparatus consists of a grid floor enclosed by a transparent acryl glass wall each section of which was 30 cm². At the center of this grid a wooden platform of 4 x 4 x 4 cm was fixed. This apparatus was set in a wooden semisoundproof box of 35 x 35 x 90 cm fitted with a 15W tungsten lamp.
Each mouse in groups (A), (B) and (C) was placed on the platform.
When the mouse stepped down from the platform and placed all its paws on the grid floor, an intermittent electrical footshock (1Hz, 0.5 sec, 60V, DC) was delivered for 15 seconds through the grid floor. […]
24 Hours after the training, each mouse was placed again on the platform and the response latency to step down from the platform was measured to an extent of 300 seconds at the longest.
Results were recorded as the mean response latency of step down for each experimental group of mice. […]

SMILES | IC50 (acetylcholinesterase) [µM] | Percentage of Recovery (%) [1] [%]
Cc1ccc2c(N)c3c(nc2c1)CC(C)(C)CC3O (racemic) [(±)-9-Amino-1-hydroxy-3,3,6-trimethyl-1,2,3,4-tetrahydroacridine] | 0.87 | 
CC1(C)CCc2c(nc3cc(Cl)ccc3c2N)C1 [9-Amino-6-chloro-3,3-dimethyl-1,2,3,4-tetrahydroacridine] |  | 95
